Measurements reported in patent US20170065564A1, “BIS-CYCLIC GUANIDINE COMPOUND COMPOSITIONS, METHODS OF USE AND TREATMENT THEREOF” (University of South Florida, priority 2014, published 2017).

Assays:
Staphylococcus aureus = assay: MIC micro broth dilution assay; type: cell-based; parameters: key to stacked score activity, 100/MIC, S: stacked score = 100/MIC; details: S. aureus
Experimental: (§1) For this study we used a representative panel of multi-drug resistant clinical ESKAPE pathogen isolates (Supplemental Table S6).^42 43 3a, 44 45 Gram-positive organisms were grown in tryptic soy broth media (TSB), whilst Gram-negative organisms were grown in lysogeny Broth (LB), as described by us previously. ^43 MIC and MBC determination assays.
(§2) Broth cultures of ESKAPE strains were grown overnight before being diluted 1 in 1,000 in fresh media. Sterile 96-well plates were loaded with culture and compounds (in DMF) were added at decreasing concentrations to equal a total volume of 200 μl per well. Care was taken to not add more than 2.0% DMF to any well. Plates were then incubated at 37° C., and MICs determined after 24 hours by visual inspection for a lack of turbidity in wells. All assays were performed in triplicate with identical results obtained. For both the scaffold ranking and positional scanning samples, relative broad-spectrum activity was determined via stacked scores: […]

Klebsiella pneumoniae = assay: MIC micro broth dilution assay; type: cell-based; parameters: key to stacked score activity, 100/MIC, K: stacked score = 100/MIC; details: K. pneumoniae
Experimental: as §1, §2

Acinetobacter baumannii = assay: MIC micro broth dilution assay; type: cell-based; parameters: key to stacked score activity, 100/MIC, A: stacked score = 100/MIC; details: A. baumannii
Experimental: as §1, §2

Enterobacter cloacae = assay: MIC micro broth dilution assay; type: cell-based; parameters: key to stacked score activity, 100/MIC, E: stacked score = 100/MIC; details: E. cloacae
Experimental: as §1, §2

Enterococcus faecium = assay: MIC micro broth dilution assay; type: cell-based; parameters: key to stacked score activity, 100/MIC, E: stacked score = 100/MIC; details: E. faecium
Experimental: as §1, §2

ESKAPE pathogens = assay: MIC micro broth dilution assay, statements and stacked scores over all ESKAPE pathogens; type: cell-based; details: for pathogens against which the compound showed activity at 4 ug/ml / pathogens against which the compound showed activity at 5 ug/ml / pathogens against which the compound showed activity at 10 ug/ml / pathogens against which the compound showed activity at 25 ug/ml: letters E,S,K,A,P,E = ESKAPE pathogens, — = none; for stacked score Total: stacked score over all ESKAPE pathogens (details in Table S4b); for Total stacked score: sum over all six ESKAPE pathogens
Experimental: as §1
as §2, with “The minimum inhibitory concentration (MIC) for the combinatorial libraries, deconvolved 2157 library, and individual compounds were determined as follows. Broth” for “Broth”

MRSA cells = assay: Time kill assay (lysis by OD600, viability by CFU); type: cell-based, Staphylococcus aureus; details: for cells remaining after exposure (optical density relative to starting values): MRSA, 2.0% SDS, 0.001% benzalkonium chloride, 0.001% benzethonium chloride; for cell recovery (viability, CFU/mL vs no drug control): after the 120 minute assay, agent washed out
Experimental: FIGS. 6A and 6B illustrates that bis-cyclic guanidines are bactericidal but not bacteriolytic. […] Shown is the optical density of cells relative to starting values from three independent experiments. Error bars are shown ±SEM. FIG. 8B is a graph illustrating cell viability of all samples after the 120 min experiment. Compounds were removed by centrifugation and washing of cells, followed by serial dilution and enumeration. Percent recovery was determined by comparison to no drug (ND) controls.
Time kill assays were performed in a 96-well microtiter plate using a BioTek Synergy2 plate reader. To prepare bacterial cultures, stationary phase MRSA cells were inoculated into fresh TSB and grown for 3 hours. After this time, cultures were inoculated into a 96-well microtiter plate at an OD600 of 0.5, followed by the addition of test agent at MIC concentrations. In parallel, 2.0% sodium dodecyl sulfate (SDS), 0.001% benzalkonium chloride, 0.001% benzethonium chloride, and 4 μM lysostaphin were used as positive controls. […] Assays were performed in triplicate over the span of 130 minutes, with OD600 readings taken every 10 minutes.

Compound | stacked score activity, 100/MIC, S (Staphylococcus aureus) | stacked score activity, 100/MIC, K (Klebsiella pneumoniae) | stacked score activity, 100/MIC, A (Acinetobacter baumannii) | stacked score activity, 100/MIC, E (Enterobacter cloacae) | stacked score activity, 100/MIC, E (Enterococcus faecium) | pathogens against which the compound showed activity at 4 ug/ml (ESKAPE pathogens) | pathogens against which the compound showed activity at 5 ug/ml (ESKAPE pathogens) | pathogens against which the compound showed activity at 10 ug/ml (ESKAPE pathogens) | pathogens against which the compound showed activity at 25 ug/ml (ESKAPE pathogens) | stacked score Total (ESKAPE pathogens) | Total stacked score (ESKAPE pathogens) | cells remaining after exposure (optical density relative to starting values) (MRSA cells) [%] | cell recovery (viability, CFU/mL vs no drug control) (MRSA cells) [%] | lysis of MRSA cells (MRSA cells; within 10 minutes of exposure, 4 μM lysostaphin) [%]
CCCCC1CN(CCCCC2CNC(=N)N2CCC23CC4CC(CC(C4)C2)C3)C(=N)N1CCCCC1CCCCC1 (stereo not shown) [Compound 20] | 20 | 20 | 25 | 20 | 50 | EAP | ESKAPE | ESKAPE | ESKAPE | 160 | 160 | – | – | –
CCCCC1CN(CCCCC2CNC(=N)N2CCC23CC4CC(CC(C4)C2)C3)C(=N)N1CCc1ccc(-c2ccccc2)cc1 (stereo not shown) [Compound 21] | 20 | 20 | 25 | 20 | 33 | – | ESKAPE | ESKAPE | ESKAPE | 123 | 123 | – | – | –
CCCCCCCN1C(=N)N(CCCC[C@H]2CNC(=N)N2CCC23CC4CC(CC(C4)C2)C3)C[C@H]1Cc1cccc2ccccc12 [Compound 22] | 20 | 20 | 25 | 20 | 25 | EAP | ESKAE | ESKAE | ESKAPE | – | – | – | – | –
N=C1NC[C@H](CCCCN2C[C@@H](Cc3cccc4ccccc34)N(CCCCC3CCCCC3)C2=N)N1CCC12CC3CC(CC(C3)C1)C2 [Compound 23] | 25 | 0 | 0 | 0 | 4 | – | – | – | ESE | – | – | – | – | –
CCCCCCCN1C(=N)N(CCCC[C@H]2CNC(=N)N2CCC23CC4CC(CC(C4)C2)C3)C[C@@H]1CC1CCCCC1 [Compound 25] | 20 | 20 | 25 | 20 | 50 | EAP | ESKAPE | ESKAPE | ESKAPE | – | – | – | – | –
N=C1NC[C@H](CCCCN2C[C@H](CC3CCCCC3)N(CCCCC3CCCCC3)C2=N)N1CCC12CC3CC(CC(C3)C1)C2 [Compound 26] | 20 | 20 | 20 | 20 | 20 | – | ESKAPE | ESKAPE | ESKAPE | – | – | – | – | –
N=C1NC[C@H](CCCCN2C[C@H](CC3CCCCC3)N(CCc3ccc(-c4ccccc4)cc3)C2=N)N1CCC12CC3CC(CC(C3)C1)C2 [Compound 27] | 20 | 20 | 4 | 10 | 10 | – | SKP | ESKPE | ESKAPE | – | – | – | – | –
CCCCCCCN1C(=N)NC[C@@H]1CCCCN1C[C@H](C(C)CC)N(CCc2cccc(C)c2)C1=N (stereo partly shown) [Compound 32] | 33 | 0 | 4 | 0 | 10 | – | – | – | ESAP | – | – | – | – | –
CCCCCCCN1C(=N)NC[C@@H]1CCCCN1C[C@@H](CCC)N(CCc2cccc(C)c2)C1=N [Compound 35] | 10 | 0 | 4 | 0 | 4 | – | – | – | ESAP | – | – | – | – | –
CCC(C)[C@H]1CN(CCCC[C@H]2CNC(=N)N2CC2CCC(C)CC2)C(=N)N1CCc1cccc(C)c1 (stereo partly shown) [Compound 50] | 10 | 0 | 4 | 0 | 10 | – | – | – | ESA | – | – | – | – | –
CCCCCCCCCCCCOS(=O)(=O)[O-].[Na+] [SDS, sodium dodecyl sulfate] | – | – | – | – | – | – | – | – | – | – | – | 52.2 | 0 | –
CC(C)(C)CC(C)(C)c1ccc(OCCOCC[N+](C)(C)Cc2ccccc2)cc1 [benzethonium chloride] | – | – | – | – | – | – | – | – | – | – | – | 32.63 | 0 | –
C[C@H]1c2cccc(O)c2C(=O)C2=C(O)[C@]3(O)C(=O)C(C(N)=O)=C(O)[C@@H](N(C)C)[C@@H]3[C@@H](O)[C@@H]21 [doxycycline] | – | – | – | – | – | – | – | – | – | – | – | – | 92 | –
benzalkonium chloride [listing 1 of 2 here] | – | – | – | – | – | – | – | – | – | – | – | 28.56 | – | –
benzalkonium chloride [listing 2 of 2 here] | – | – | – | – | – | – | – | – | – | – | – | – | 0 | –
lysostaphin: a S. aureus specific lytic agent, positive control | – | – | – | – | – | – | – | – | – | – | – | – | 0 | > 50
